{"source": "patent EP4813978A1", "about": "“COMPOUND TARGETING UBIQUITIN KRAS PROTEIN DEGRADATION AGENT, AND USE THEREOF” (Betta Pharmaceuticals Co., Ltd, priority 2023, dated 2025)", "format_in_all_cases": "cell-based", "key": {"[1]": {"test_system": "AGS", "assay": "Cell proliferation assay (Cell-titer Glo), AGS", "conditions": "KRAS G12D, 96 h", "method": "(§1) Cells with different mutations were seeded in low-attachment transparent 96-well plates at the seeding densities shown in Table 1, and incubated overnight in a cell culture incubator. After the cells adhered, the test compounds were added to the 96-well plates at final concentrations of 20000 nM, 5000 nM, 1250 nM, 312.5 nM, 78.13 nM, 19.53 nM, 4.88 nM, 1.22 nM, 0.31 nM, 0 nM (the final concentration of DMSO was 0.25% in all wells). After culturing at 37°C for 96 h, 50 µL of Cell-titer Glo working solution was added to each well. The plates were shaken to mix and then incubated at room temperature for 10 min. Luminescence values were read on a multimode microplate reader, and the luminescence data were converted into percentage inhibition. The percentage of cell proliferation inhibition was calculated according to the following formula: Percentage inhibition = (1−(TestValue−Blank)/(MaxValue−Blank)) × 100% [formula]\n(§2) (\"Max value\" is from the 0.25% DMSO control wells, \"Blank\" is from the blank medium control wells, and \"Test Value\" is from the compound-treated wells).\n(§3) Curve fitting was performed using GraphPad Prism software to obtain IC50 (nM) values."}, "[2]": {"test_system": "H358", "assay": "Cell proliferation assay (Cell-titer Glo), H358", "conditions": "Homo sapiens, NCI-H358, H358, KRAS G12C, 96 h", "method": "as §1, §2, §3"}, "[3]": {"test_system": "SW620", "assay": "Cell proliferation assay (Cell-titer Glo), SW620", "conditions": "Homo sapiens, SW-620, SW620, KRAS G12V, 96 h", "method": "as §1, §2, §3"}, "[4]": {"test_system": "AsPC-1", "assay": "Cell proliferation assay (Cell-titer Glo), AsPC-1", "conditions": "Homo sapiens, ASPC1, AsPC-1, KRAS G12D, 96 h", "method": "as §1, §2, §3"}, "[5]": {"test_system": "MKN-1", "assay": "Cell proliferation assay (Cell-titer Glo), MKN-1", "conditions": "Homo sapiens, MKN-1, KRAS WT-Amp, 96 h", "method": "as §1, §2, §3"}, "[6]": {"test_system": "Panc0403", "assay": "Cell proliferation assay (Cell-titer Glo), Panc0403", "conditions": "Homo sapiens, Panc 04.03, Panc0403, KRAS G12D, 96 h", "method": "as §1, §2, §3"}, "[7]": {"test_system": "Mia-Paca2", "assay": "Cell proliferation assay (Cell-titer Glo), Mia-Paca2", "conditions": "96 h", "method": "as §1, §2, §3"}, "[8]": {"conditions": "Homo sapiens, MIA PaCa-2, Mia-Paca2, KRAS G12C"}}}
{"molecule": "CCc1c(F)ccc2cc(O)cc(-c3ncc4c(N5CCCOCC5)nc(OCC5(CN6CCC(Oc7cnc(-c8cn([C@H](C(=O)N9C[C@H](O)C[C@H]9C(=O)N[C@@H](C)c9ccc(-c%10scnc%10C)cc9)C(C)C)nn8)cn7)CC6)CC5)nc4c3F)c12", "note": "[Compound 5, (2S,4R)-1-((S)-2-(4-(5-((1-((1-(((7-(8-ethyl-7-fluoro-3-hydroxynaphthalen-1-yl)-8-fluoro-4-(1,4-oxazepan-4-yl)pyrido[4,3-d]pyrimidin-2-yl)oxy)methyl)cyclopropyl)methyl)piperidin-4-yl)oxy)pyrazin-2-yl)-1H-1,2,3-triazol-1-yl)-3-methylbutanoyl)-4-hydroxy-N-((S)-1-(4-(4-methylthiazol-5-yl)phenyl)ethyl)pyrrolidine-2-carboxamide]", "values": [{"measurement": "IC50", "setting": "[1]; Homo sapiens", "value": 20, "unit": "nM"}, {"measurement": "IC50", "setting": "[2]", "value": 55, "unit": "nM"}, {"measurement": "IC50", "setting": "[3]", "value": 34, "unit": "nM"}]}
{"molecule": "CCc1c(F)ccc2cc(O)cc(-c3ncc4c(N5CCCS(=O)(=O)C5)nc(OCC5(CN6CCC(Oc7cnc(-c8cn([C@H](C(=O)N9C[C@H](O)C[C@H]9C(=O)N[C@@H](C)c9ccc(-c%10scnc%10C)cc9)C(C)C)nn8)cn7)CC6)CC5)nc4c3F)c12", "note": "[Compound 7, (2S,4R)-1-((S)-2-(4-(5-((1-((1-(((4-(1,1-dioxido-1,3-thiazinan-3-yl)-7-(8-ethyl-7-fluoro-3-hydroxynaphthalen-1-yl)-8-fluoropyrido[4,3-d]pyrimidin-2-yl)oxy)methyl)cyclopropyl)methyl)piperidin-4-yl)oxy)pyrazin-2-yl)-1H-1,2,3-triazol-1-yl)-3-methylbutanoyl)-4-hydroxy-N-((S)-1-(4-(4-methylthiazol-5-yl)phenyl)ethyl)pyrrolidine-2-carboxamide]", "values": [{"measurement": "IC50", "setting": "[1]; Homo sapiens", "value": 6.2, "unit": "nM"}, {"measurement": "IC50", "setting": "[3]", "value": 31, "unit": "nM"}]}
{"molecule": "CCc1c(F)ccc2cc(O)cc(-c3ncc4c(N5CCC[C@](O)(CC#N)C5)nc(OCC5(CN6CCC(Oc7cnc(-c8cn([C@H](C(=O)N9C[C@H](O)C[C@H]9C(=O)N[C@@H](C)c9ccc(-c%10scnc%10C)cc9)C(C)C)nn8)cn7)CC6)CC5)nc4c3F)c12", "note": "[Compound 57, (2S,4R)-1-((S)-2-(4-(5-((1-((1-(((4-((S)-3-(cyanomethyl)-3-hydroxypiperidin-1-yl)-7-(8-ethyl-7-fluoro-3-hydroxynaphthalen-1-yl)-8-fluoropyrido[4,3-d]pyrimidin-2-yl)oxy)methyl)cyclopropyl)methyl)piperidin-4-yl)oxy)pyrazin-2-yl)-1H-1,2,3-triazol-1-yl)-3-methylbutanoyl)-4-hydroxy-N-((S)-1-(4-(4-methylthiazol-5-yl)phenyl)ethyl)pyrrolidine-2-carboxamide]", "values": [{"measurement": "IC50", "setting": "[1]; Homo sapiens", "value": 5, "unit": "nM"}, {"measurement": "IC50", "setting": "[2]", "value": 20, "unit": "nM"}, {"measurement": "IC50", "setting": "[3]", "value": 18, "unit": "nM"}]}
{"molecule": "CCc1c(F)ccc2cc(O)cc(-c3ncc4c(N5CCCC6(CCO6)C5)nc(OCC5(CN6CCN(c7ccc(-c8cn([C@H](C(=O)N9C[C@H](O)C[C@H]9C(=O)N[C@@H](C)c9ccc(-c%10scnc%10C)cc9)C(C)C)nn8)cn7)CC6)CC5)nc4c3F)c12", "note": "(stereo partly drawn) [Compound 111, (2S,4R)-1-((2S)-2-(4-(6-(4-((1-(((7-(8-ethyl-7-fluoro-3-hydroxynaphthalen-1-yl)-8-fluoro-4-(1-oxa-6-azaspiro[3.5]nonan-6-yl)pyrido[4,3-d]pyrimidin-2-yl)oxy)methyl)cyclopropyl)methyl)piperazin-1-yl)pyridin-3-yl)-1H-1,2,3-triazol-1-yl)-3-methylbutanoyl)-4-hydroxy-N-((S)-1-(4-(4-methylthiazol-5-yl)phenyl)ethyl)pyrrolidine-2-carboxamide]", "values": [{"measurement": "IC50", "setting": "[1]; Homo sapiens", "value": 30, "unit": "nM"}, {"measurement": "IC50", "setting": "[2]", "value": 56, "unit": "nM"}, {"measurement": "IC50", "setting": "[3]", "value": 43, "unit": "nM"}]}
{"molecule": "CCc1c(F)ccc2cc(O)cc(-c3nc4c5c(nc(OCC6(CN7CCC(Oc8cnc(-c9cn([C@H](C(=O)N%10C[C@H](O)C[C@H]%10C(=O)N[C@@H](C)c%10ccc(-c%11scnc%11C)cc%10)C(C)C)nn9)cn8)CC7)CC6)nc5c3F)N3CCCOC[C@H]3CO4)c12", "note": "[Compound 112, (2S,4R)-1-((S)-2-(4-(5-((1-((1-((((S)-2-(8-ethyl-7-fluoro-3-hydroxynaphthalen-1-yl)-1-fluoro-5a, 6,9,10-tetrahydro-5H,8H-4,7-dioxa-3,10a,11,13-tetraazanaphtho[1,8-ab]heptalen-12-yl)oxy)methyl)cyclopropyl)methyl)piperidin-4-yl)oxy)pyrazin-2-yl)-1H-1,2,3-triazol-1-yl)-3-methylbutanoyl)-4-hydroxy-N-((S)-1-(4-(4-methylthiazol-5-yl)phenyl)ethyl)pyrrolidine-2-carboxamide]", "values": [{"measurement": "IC50", "setting": "[1]; Homo sapiens", "value": 4.4, "unit": "nM"}, {"measurement": "IC50", "setting": "[4]", "value": 2.6, "unit": "nM"}, {"measurement": "IC50", "setting": "[5]", "value": 0.4, "unit": "nM"}, {"measurement": "IC50", "setting": "[3]", "value": 20, "unit": "nM"}, {"measurement": "IC50", "setting": "[6]", "value": 6.5, "unit": "nM"}]}
{"molecule": "CCc1c(F)ccc2cc(O)cc(-c3ncc4c(N5CCCCC(=O)C5)nc(OCC5(CN6CCC(Oc7cnc(-c8cn([C@H](C(=O)N9C[C@H](O)C[C@H]9C(=O)N[C@@H](C)c9ccc(-c%10scnc%10C)cc9)C(C)C)nn8)cn7)CC6)CC5)nc4c3F)c12", "note": "[Compound 113, (2S,4R)-1-((S)-2-(4-(5-((1-((1-(((7-(8-ethyl-7-fluoro-3-hydroxynaphthalen-1-yl)-8-fluoro-4-(3-oxoazepan-1-yl)pyrido[4,3-d]pyrimidin-2-yl)oxy)methyl)cyclopropyl)methyl)piperidin-4-yl)oxy)pyrazin-2-yl)-1H-1,2,3-triazol-1-yl)-3-methylbutanoyl)-4-hydroxy-N-((S)-1-(4-(4-methylthiazol-5-yl)phenyl)ethyl)pyrrolidine-2-carboxamide]", "values": [{"measurement": "IC50", "setting": "[1]; Homo sapiens", "value": 80, "unit": "nM"}, {"measurement": "IC50", "setting": "[3]", "value": 325, "unit": "nM"}]}
{"molecule": "CCc1c(F)ccc2cc(O)cc(-c3ncc4c(N5CCOC[C@@](C)(O)C5)nc(OCC5(CN6CCC(Oc7cnc(-c8cn([C@H](C(=O)N9C[C@H](O)C[C@H]9C(=O)N[C@@H](C)c9ccc(-c%10scnc%10C)cc9)C(C)C)nn8)cn7)CC6)CC5)nc4c3F)c12", "note": "[Compound 114, (2S,4R)-1-((S)-2-(4-(5-((1-((1-(((7-(8-ethyl-7-fluoro-3-hydroxynaphthalen-1-yl)-8-fluoro-4-((S)-6-hydroxy-6-methyl-1,4-oxazepan-4-yl)pyrido[4,3-d]pyrimidin-2-yl)oxy)methyl)cyclopropyl)methyl)piperidin-4-yl)oxy)pyrazin-2-yl)-1H-1,2,3-triazol-1-yl)-3-methylbutanoyl)-4-hydroxy-N-((S )-1-(4-(4-methylthiazol-5-yl)phenyl)ethyl)pyrrolidine-2-carboxamide]", "values": [{"measurement": "IC50", "setting": "[1]; Homo sapiens", "value": 2.7, "unit": "nM"}, {"measurement": "IC50", "setting": "[3]", "value": 10, "unit": "nM"}]}
{"molecule": "CCc1c(F)ccc2cc(O)cc(-c3ncc4c(N5CCOC[C@@](C)(O)C5)nc(OCC5(CN6CCC(Oc7cnc(-c8cn([C@H](C(=O)N9C[C@H](O)C[C@H]9C(=O)N[C@@H](CN(C)C)c9ccc(-c%10scnc%10C)cc9)C(C)C)nn8)cn7)CC6)CC5)nc4c3F)c12", "note": "[Compound 131, (2S,4R)-N-((R)-2-(dimethylamino)-1-(4-(4-methylthiazol-5-yl)phenyl)ethyl)-1-((S)-2-(4-(5-((1-((1-(((7-(8-ethyl-7-fluoro-3-hydroxynaphthalen-1-yl)-8-fluoro-4-((S)-6-hydroxy-6-methyl-1,4-oxazepan-4-yl)pyrido[4,3-d]pyrimidin-2-yl)oxy)methyl)cyclopropyl)methyl)piperidin-4-yl)oxy)pyrazin-2-yl)-1H-1,2,3-triazol-1-yl)-3-methylbutanoyl)-4-hydroxypyrrolidine-2-carboxamide]", "values": [{"measurement": "IC50", "setting": "[1]; Homo sapiens", "value": 4.4, "unit": "nM"}, {"measurement": "IC50", "setting": "[2]", "value": 8.4, "unit": "nM"}, {"measurement": "IC50", "setting": "[3]", "value": 15, "unit": "nM"}, {"measurement": "IC50", "setting": "[7]; [8]", "value": 5.3, "unit": "nM"}]}
{"molecule": "CCc1c(F)ccc2cc(O)cc(-c3nc4c5c(nc(OCC6(CN7CCC(Oc8cnc(-c9cn([C@H](C(=O)N%10C[C@H](O)C[C@H]%10C(=O)N[C@@H](C)c%10ccc(-c%11scnc%11C)cc%10)C(C)C)nn9)cn8)CC7)CC6)nc5c3F)N3CCCC(C)(O)C3CO4)c12", "note": "(stereo partly drawn) [Compound 133, (2S,4R)-1-((2S)-2-(4-(5-((1-((1-(((5-(8-ethyl-7-fluoro-3-hydroxynaphthalen-1-yl)-4-fluoro-9-hydroxy-9-methyl-8,8a,9,10,11,12-hexahydro-7-oxa-1,3,6,12a-tetraazabenzo[4,5]cyclohepta[1,2,3-de]naphthalen-2-yl)oxy)methyl)cyclopropyl)methyl)piperidin-4-yl)oxy)pyrazin-2-yl)-1H-1,2,3-triazol-1-yl)-3-methylbutanoyl)-4-hydroxy-N-((S)-1-(4-(4-methylthiazol-5-yl)phenyl)ethyl)pyrrolidine-2-carboxamide]", "values": [{"measurement": "IC50", "setting": "[1]; Homo sapiens", "value": 15, "unit": "nM"}, {"measurement": "IC50", "setting": "[2]", "value": 40, "unit": "nM"}, {"measurement": "IC50", "setting": "[3]", "value": 36, "unit": "nM"}, {"measurement": "IC50", "setting": "[7]; [8]", "value": 26, "unit": "nM"}]}
{"molecule": "(2S,4R)-1-((2S)-2-(4-(5-((1-((1-(((7-(8-ethyl-7-fluoro-3-hydroxynaphthalen-1-yl)-8-fluoro-4-(3-h ydroxy-3-methylazepan-1-yl)pyrido[4,3-d]pyrimidin-2-yl)oxy)methyl)cyclopropyl)methyl)piperi din-4-yl)oxy)pyrazin-2-yl)-1H-1,2,3-triazol-1-yl)-3-methylbutanoyl)-4-hydroxy-N-((S)-1-(4-(4-methylthiazol-5-yl)phenyl)ethyl)pyrrolidine-2-carboxamide [Compound 134]", "values": [{"measurement": "IC50", "setting": "[1]", "value": 34, "unit": "nM"}, {"measurement": "IC50", "setting": "[7]; Mia-Paca2, KRAS G12C", "value": 67, "unit": "nM"}]}
